The source of these data is PMC7530896 (Journal of the American Chemical Society, 2020).

The target of data set [1] is T1, purified recombinant human UCHL1 (Homo sapiens, UniProt P09936).
T1 sequence (P09936 1-223): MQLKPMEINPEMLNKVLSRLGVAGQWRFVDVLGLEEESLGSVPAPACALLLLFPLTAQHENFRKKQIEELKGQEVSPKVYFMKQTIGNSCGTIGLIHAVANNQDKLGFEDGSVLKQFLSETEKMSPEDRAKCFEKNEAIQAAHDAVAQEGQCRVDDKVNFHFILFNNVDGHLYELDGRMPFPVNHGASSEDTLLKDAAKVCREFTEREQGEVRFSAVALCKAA
Nature of the data set: Probe labeling of purified recombinant UCHL1. Type of data set: binding. The note with it: small-molecule probes: nondenaturing SDS-PAGE (no boiling, no β-mercaptoethanol).

The next data set relates to UCHL1. Nature of the data set: Morpholino injections in zebrafish embryos, tail phenotype. Type of data set: in vivo, zebrafish (Danio rerio). The note with it: 2 dpf zebrafish embryos, 2 ng morpholino.
A further data set concerns PARK7. Nature of the data set: Morpholino injections in zebrafish embryos, heart phenotype. Type of data set: in vivo, zebrafish (Danio rerio). The note with it: 2 dpf zebrafish embryos.

As for “rhodamine-ubiquitin-propargylamide [Rh-Ub-PA]”, in data set [1], the “labeling of purified recombinant human UCHL1” value is reported as “nearly all UCHL1 is labeled”.
Consider “UCHL1MO2: morpholino targeting UCHL1 exon 4, 5′-GTTCCTTAAACATATCCACTTACCA-3′ (all phosphorodiamidate morpholino (PMO))”, for which the “Tail phenotype % curly tail” value in the data set with UCHL1 turned out to be 79%.
Consider “PARK7MO1: morpholino targeting PARK7 exon 2, 5′-TATGTAAAGTCAGACCTGTTTGTG-3′ (all phosphorodiamidate morpholino (PMO))”, for which the “abnormal enlarged heart phenotype” value in the data set on PARK7 is recorded as around 18%.
“UCHL1MO1: morpholino targeting UCHL1, 5′-TATTTCCATCGGTTTCCACTCCATG-3′ (all phosphorodiamidate morpholino (PMO))”: the “Tail phenotype % curly tail” value in the data set on UCHL1 came out at 53%.
